Values of other authors as cited in US10143639B2, “Use of adelmidrol and other topical or oral cannabinomimetic or aliamide mast cell inhibitors to treat dermatoheliosis, seborrheic keratoses, and androgenetic alopecia” (priority 2017, dated 2018).

How the values were obtained:
[1] = system: NGF
[2] = system: hair growth in mice; settings: applied to the skin of mice
[3] = system: AGA patients; settings: share of treated AGA patients improving
[4] = system: AGA scalp; settings: topical application, especially in subjects already taking finasteride

SMILES: CCCCCCCCCCCCCCCC(=O)NCCO [PEA, palmitoylethanolamide]
- pro-inflammatory effects of NGF [1]: turned off the pro-inflammatory effects of NGF

SMILES: CCCCC[C@H](O)/C=C/[C@H]1C(=O)C[C@H](O)[C@@H]1C/C=C\CCCC(=O)O [PGD2, Prostaglandin D2]
- hair growth [2]: stopped hair growth

SMILES: CC(C)(C)NC(=O)[C@H]1CC[C@H]2[C@@H]3CC[C@H]4NC(=O)C=C[C@]4(C)[C@H]3CC[C@]12C [finasteride]
- clinical improvement in treated AGA patients [3]: 50-60%

SMILES: CCCCC/C=C\C/C=C\CCCCCCCC(=O)O [linoleic acid]
- hair growth [4]: improved hair growth
